pIC50: −log10 of the molar value. Where a name gives a salt, the structure may show the parent alone.
Columns and labels:
BACE1 enzyme = BACE1 enzyme (Homo sapiens (Human), UniProt P56817); experiment: BACE1 Cell-Free Assay (fluorescence polarization);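 on all read-outs here: Affinity-purified soluble BACE1 from transfected CHO-K1 cells cleaving a biotinylated, Oregon Green-labelled synthetic APP peptide, 3 h at 37 °C, cleavage followed by fluorescence polarization change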; type: biochemical; settings: for pIC50: geometric mean of 2-3 determinations (Ex. 2: ≧6 determinations); for biological activity (in words, see Table 3): statement used to assign absolute stereochemistry, refers to Table 3
Chain of BACE1 enzyme (P56817 46-457): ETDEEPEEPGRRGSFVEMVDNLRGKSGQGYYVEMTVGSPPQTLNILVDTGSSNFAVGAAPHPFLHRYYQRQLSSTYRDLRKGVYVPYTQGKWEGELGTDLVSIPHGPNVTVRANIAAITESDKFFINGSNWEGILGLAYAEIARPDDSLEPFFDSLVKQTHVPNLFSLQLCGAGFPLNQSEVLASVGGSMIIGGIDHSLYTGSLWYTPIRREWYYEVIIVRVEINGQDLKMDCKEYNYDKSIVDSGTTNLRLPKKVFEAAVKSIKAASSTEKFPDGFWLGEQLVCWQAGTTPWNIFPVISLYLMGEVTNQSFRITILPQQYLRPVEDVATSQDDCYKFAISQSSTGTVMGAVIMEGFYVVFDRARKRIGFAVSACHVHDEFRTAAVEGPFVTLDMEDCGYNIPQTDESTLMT

[1] = tested on: sAPPβ levels in H4 human neuroglioma cells over-expressing the wild-type human APP695; experiment: Whole Cell Assay (In Vitro sAPPb Assay); type: cell-based; settings: 18 hours, geometric mean of 2-3 determinations (Ex. 2: ≧6 determinations)
BACE2 enzyme = BACE2 enzyme (Homo sapiens (Human), UniProt Q9Y5Z0); experiment: BACE2 Assay (cell-free, fluorescence polarization); type: biochemical; settings: single determination
Chain of BACE2 enzyme (Q9Y5Z0 63-518): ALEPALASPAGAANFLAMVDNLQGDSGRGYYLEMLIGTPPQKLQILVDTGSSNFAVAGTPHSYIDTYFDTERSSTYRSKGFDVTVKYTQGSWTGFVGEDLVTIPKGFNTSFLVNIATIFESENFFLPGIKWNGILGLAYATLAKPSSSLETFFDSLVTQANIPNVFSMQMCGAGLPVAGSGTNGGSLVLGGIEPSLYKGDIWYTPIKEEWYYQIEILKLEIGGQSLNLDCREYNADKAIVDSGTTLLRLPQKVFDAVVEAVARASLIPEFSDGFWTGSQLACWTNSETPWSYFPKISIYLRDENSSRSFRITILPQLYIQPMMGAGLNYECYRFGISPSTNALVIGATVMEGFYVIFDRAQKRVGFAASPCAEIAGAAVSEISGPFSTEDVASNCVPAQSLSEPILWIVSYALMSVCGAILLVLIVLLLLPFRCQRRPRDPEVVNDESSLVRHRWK
Protocol: This assay measures the inhibition of the BACE2 enzyme as it cleaves a non-native peptide. A synthetic substrate that can be cleaved by BACE2 having N-terminal biotin and made fluorescent by the covalent attachment of Oregon Green at the Cys residue is used to assay BACE2 activity in the presence or absence of the inhibitory compounds. The substrate is Biotin-[…]-C(Oregon green)-KK-OH. The BACE2 enzyme is available from Enzo Life Sciences (Cat # BML-SE550). Compounds are incubated in a ½ log dose response curve from a top concentration of 100 μM with BACE2 enzyme and the biotinylated fluorescent peptide in 384-well black plates (Thermo Scientific #4318). BACE2 is at a final concentration of 2.5 nM with a final concentration of peptide substrate of 150 nM in a reaction volume of 30 μL assay buffer (100 mM sodium acetate, pH 4.5 (brought to pH with acetic acid), and 0.001% Tween-20). Plates are covered and incubated for 3 hours at 37° C. The reaction is stopped with the addition of 30 μL of 1.5 μM Streptavidin (Pierce, #21125). After a 10 minute incubation at room temperature, plates are read on a PerkinElmer EnVision for fluorescence polarization (Ex485 nm/Em530 nm). The activity of the beta-secretase enzyme is detected by changes in the fluorescence polarization that occur when the substrate is cleaved by the enzyme.

Compound	pIC50 (BACE1 enzyme)	pIC50 ([1]; Homo sapiens)	pIC50 (BACE2 enzyme)	biological activity (in words, see Table 3) (BACE1 enzyme)	pIC50 [1]
COC[C@H]1SC(N)=N[C@@]2(c3ccc(F)cc3F)CO[C@@H](C3CC3)C[C@@H]12 (racemic) [Example 5, rel-(4S,4aR,6R,8aS)-6-Cyclopropyl-8a-(2,4-difluorophenyl)-4-(methoxymethyl)-4,4a,5,6,8,8a-hexahydropyrano[3,4-d][1,3]thiazin-2-amine, hydrochloride salt]	5.85	6.94			
NC1=N[C@@]2(c3ccc(F)cc3F)CO[C@@H](C3CC3)C[C@H]2CS1 [Example 2, (4aR,6R,8aS)-6-Cyclopropyl-8a-(2,4-difluorophenyl)-4,4a,5,6,8,8a-hexahydropyrano[3,4-d][1,3]thiazin-2-amine]		7.62	5.65		
C[C@H]1SC(N)=N[C@@]2(c3ccc(F)cc3F)CO[C@@H](C3CC3)C[C@@H]12 [Example 3, (4R,4aR,6R,8aS)-6-Cyclopropyl-8a-(2,4-difluorophenyl)-4-methyl-4,4a,5,6,8,8a-hexahydropyrano[3,4-d][1,3]thiazin-2-amine, trifluoroacetate salt]	6.47	7.41	5.60		
NC1=N[C@@]2(c3ccc(F)cc3F)CO[C@@H](C3CC3)C[C@H]2[C@@H](CF)S1 [Example 6, (4S,4aR,6R,8aS)-6-Cyclopropyl-8a-(2,4-difluorophenyl)-4-(fluoromethyl)-4,4a,5,6,8,8a-hexahydropyrano[3,4-d][1,3]thiazin-2-amine, hydrochloride salt]	6.46	7.41			
CC1([C@H]2C[C@H]3CSC(N)=N[C@@]3(c3ccc(F)cc3F)CO2)CC1 [Example 7, (4aR,6R,8aS)-8a-(2,4-Difluorophenyl)-6-(1-methylcyclopropyl)-4,4a,5,6,8,8a-hexahydropyrano[3,4-d][1,3]thiazin-2-amine]	6.32	6.85			
NC1=N[C@@]2(c3ccc(F)cc3F)CO[C@@H](CC3CC3)C[C@H]2CS1 [Example 8, (4aR,6S,8aS)-6-(Cyclopropylmethyl)-8a-(2,4-difluorophenyl)-4,4a,5,6,8,8a-hexahydropyrano[3,4-d][1,3]thiazin-2-amine]	6.63	7.21			
NC1=N[C@@]2(c3ccccc3)CO[C@@H](C3CC3)C[C@H]2CS1 [Example 14, (4aR,6R,8aS)-6-Cyclopropyl-8a-phenyl-4,4a,5,6,8,8a-hexahydropyrano[3,4-d][1,3]thiazin-2-amine]	5.89	6.85			
CC1(C)CCC([C@H]2C[C@H]3CSC(N)=N[C@@]3(c3ccc(F)cc3F)CO2)O1 (stereo partly drawn) [Example 19, (4aR,6R,8aS)-8a-(2,4-Difluorophenyl)-6-(5,5-dimethyltetrahydrofuran-2-yl)-4,4a,5,6,8,8a-hexahydropyrano[3,4-d][1,3]thiazin-2-amine]	6.74	7.75			
Cl.NC1=N[C@]2(c3ccc(F)cc3F)CO[C@H](C3CC3)C[C@@H]2[C@H](CF)S1 [Example C48, (4R,4aS,6S,8aR)-6-cyclopropyl-8a-(2,4-difluorophenyl)-4-(fluoromethyl)-4,4a,5,6,8,8a-hexahydropyrano[3,4-d][1,3]thiazin-2-amine, hydrochloride salt]	< 4.00	< 4.52		inactive	
CC1([C@@H]2C[C@@H]3CSC(N)=N[C@]3(c3ccc(F)cc3F)CO2)CC1 [Example C61, (4aS,6S,8aR)-8a-(2,4-difluorophenyl)-6-(1-methylcyclopropyl)-4,4a,5,6,8,8a-hexahydropyrano[3,4-d][1,3]thiazin-2-amine]	4.43	5.54		essentially inactive	

Next, values leading:

pIC50 (BACE1 enzyme)	pIC50 ([1]; Homo sapiens)	pIC50 (BACE2 enzyme)	biological activity (in words, see Table 3) (BACE1 enzyme)	pIC50 [1]	Compound
6.35	7.13	5.89			NC1=N[C@@]2(c3ccc(F)cc3F)CO[C@@H](C3CCCO3)C[C@H]2CS1 (stereo partly drawn) [Example 1, (4aR,6R,8aS)-8a-(2,4-Difluorophenyl)-6-(tetrahydrofuran-2-yl)-4,4a,5,6,8,8a-hexahydropyrano[3,4-d][1,3]thiazin-2-amine, trifluoroacetate salt]
5.88	6.86				NC1=N[C@@]2(c3ccc(F)cc3F)CO[C@@H](C3CCO3)C[C@H]2CS1 (stereo partly drawn) [Example 4, (4aR,6R,8aS)-8a-(2,4-Difluorophenyl)-6-(oxetan-2-yl)-4,4a,5,6,8,8a-hexahydropyrano[3,4-d][1,3]thiazin-2-amine]
5.98	7.24				NC1=N[C@@]2(c3c(F)cc(F)cc3F)CO[C@@H](C3CC3)C[C@H]2CS1 [Example 9, (4aR,6R,8aS)-6-Cyclopropyl-8a-(2,4,6-trifluorophenyl)-4,4a,5,6,8,8a-hexahydropyrano[3,4-d][1,3]thiazin-2-amine]
6.24	7.05				NC1=N[C@@]2(c3ccc(F)cc3)CO[C@@H](C3CC3)C[C@H]2CS1 [Example 10, (4aR,6R,8aS)-6-Cyclopropyl-8a-(4-fluorophenyl)-4,4a,5,6,8,8a-hexahydropyrano[3,4-d][1,3]thiazin-2-amine]
5.85	7.07				NC1=N[C@@]2(c3cc(F)ccc3F)CO[C@@H](C3CC3)C[C@H]2CS1 [Example 11, (4aR,6R,8aS)-6-Cyclopropyl-8a-(2,5-difluorophenyl)-4,4a,5,6,8,8a-hexahydropyrano[3,4-d][1,3]thiazin-2-amine]
6.40	7.46				NC1=N[C@@]2(c3c(F)cccc3F)CO[C@@H](C3CC3)C[C@H]2CS1 [Example 12, (4aR,6R,8aS)-6-Cyclopropyl-8a-(2,6-difluorophenyl)-4,4a,5,6,8,8a-hexahydropyrano[3,4-d][1,3]thiazin-2-amine]
6.37	7.40				NC1=N[C@@]2(c3ccccc3F)CO[C@@H](C3CC3)C[C@H]2CS1 [Example 13, (4aR,6R,8aS)-6-Cyclopropyl-8a-(2-fluorophenyl)-4,4a,5,6,8,8a-hexahydropyrano[3,4-d][1,3]thiazin-2-amine]
6.15	7.14				Cc1ccc([C@]23CO[C@@H](C4CC4)C[C@H]2CSC(N)=N3)c(F)c1 [Example 15, (4aR,6R,8aS)-6-Cyclopropyl-8a-(2-fluoro-4-methylphenyl)-4,4a,5,6,8,8a-hexahydropyrano[3,4-d][1,3]thiazin-2-amine]
6.05	7.03				Cc1ccc([C@]23CO[C@@H](C4CC4)C[C@H]2CSC(N)=N3)cc1F [Example 16, (4aR,6R,8aS)-6-Cyclopropyl-8a-(3-fluoro-4-methylphenyl)-4,4a,5,6,8,8a-hexahydropyrano[3,4-d][1,3]thiazin-2-amine]
4.59	5.81				NC1=N[C@]2(c3ccccc3F)CO[C@H](C3CC3)C[C@@H]2CS1 [Example 17, (4aS,6S,8aR)-6-Cyclopropyl-8a-(2-fluorophenyl)-4,4a,5,6,8,8a-hexahydropyrano[3,4-d][1,3]thiazin-2-amine]
4.81	5.65				NC1=N[C@]2(c3ccc(F)cc3)CO[C@H](C3CC3)C[C@@H]2CS1 [Example 18, (4aS,6S,8aR)-6-Cyclopropyl-8a-(4-fluorophenyl)-4,4a,5,6,8,8a-hexahydropyrano[3,4-d][1,3]thiazin-2-amine]
6.94	7.79				C[C@@H]1C[C@H]1[C@H]1C[C@H]2CSC(N)=N[C@@]2(c2ccc(F)cc2F)CO1 [Example 20, (4aR,6R,8aS)-8a-(2,4-Difluorophenyl)-6-[(1R,2R)-2-methylcyclopropyl]-4,4a,5,6,8,8a-hexahydropyrano[3,4-d][1,3]thiazin-2-amine]
6.52	7.40				NC1=N[C@@]2(c3ccc(F)cc3F)CO[C@@H]([C@@H]3CCCO3)C[C@H]2CS1 [Example 21, (4aR,6R,8aS)-8a-(2,4-Difluorophenyl)-6-[(2S)-tetrahydrofuran-2-yl]-4,4a,5,6,8,8a-hexahydropyrano[3,4-d][1,3]thiazin-2-amine]
			essentially inactive	4.76	NC1=N[C@]2(c3ccc(F)cc3F)CO[C@H](C3CC3)C[C@@H]2CS1 [Example C23, (4aS,6S,8aR)-6-cyclopropyl-8a-(2,4-difluorophenyl)-4,4a,5,6,8,8a-hexahydropyrano[3,4-d][1,3]thiazin-2-amine]
< 4.07	5.13		essentially inactive		NC1=N[C@]2(c3ccc(F)cc3F)CO[C@H](CC3CC3)C[C@@H]2CS1 [Example C74, (4aS,6R,8aR)-6-(cyclopropylmethyl)-8a-(2,4-difluorophenyl)-4,4a,5,6,8,8a-hexahydropyrano[3,4-d][1,3]thiazin-2-amine]

Source: patent US9403846B2, “Carbocyclic- and heterocyclic-substituted hexahydropyrano[3,4-d][1,3]thiazin-2-amine compounds” (Pfizer Inc., priority 2012, dated 2016)
